The text below walks through data of patent publication US5968910A, “Compositions containing two or three inhibitors of different HIV reverse transcriptases” (priority 1994, dated 1999).

Test [1] has as its system HIV-1/TIBO R82913 (103-Asn). Nature of the test: Sensitivity of mutant HIV-1 strain in CEM cell cultures. In kind it is cell-based. Particulars: CEM cells, Table 1. The essentials:
(§1)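 Infect CEM cells (250,000 cells per ml) with virus at 100 CCID50/ml; add infected suspension to wells holding diluted compound; incubate 4 days, 37° C.; examine for syncytia.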

The next test has as its system HIV-1/II(0.1) 100-Ile. Described as above. The class given is cell-based. The note with it: Table 5. The essentials: as §1
Another test deals with HIV-1/Nev (106-Ala). The description is as above. The class given is cell-based. The note with it: CEM cells, Table 1. In a few lines: as §1
For another test, the system named is HIV-1/I(0.1) 103-Asn. The description is as above. In kind it is cell-based. Particulars: Table 5. The essentials:
as §1

For test [2], the system named is HIV-1/V(0.1) 101-Ile + 141-Glu. The description is as above. In kind it is cell-based. Particulars: Table 5. In a few lines: as §1
The subject of the next test is HIV-1/V(0.5) 103-Asn. The test is described as above. The class given is cell-based. The essentials:
as §1

The next test has as its system HIV-1/Pyr (181-Cys). The description is as above. The class given is cell-based. Particulars: CEM cells, Table 1. In a few lines: as §1
Another test deals with HIV-1/III(0.1) 103-Asn. The description is as above. In kind it is cell-based. Particulars: Table 5. In a few lines: as §1
Test [3] concerns HIV-1/TSAO-m^3 T (138-Lys). The test is described as above. The class given is cell-based. Particulars: CEM cells, Table 1. In a few lines: as §1
Test [4] has as its system HIV-1/TIBO R82150 (100-Ile). The description is as above. In kind it is cell-based. Particulars: CEM cells, Table 1. The essentials: as §1
Another test relates to HIV-1/IV(0.1) 103-Thr. The description is as above. In kind it is cell-based. Particulars: Table 5. The essentials:
as §1

Another test has as its target HIV-1 RT (WT) (Human immunodeficiency virus type 1 group M subtype B, UniProt P03366). Nature of the test: biochemical. Particulars: IC50, anti-HIV-1 RT (WT) activity. In a few lines:
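Recombinant HIV-1 RT incubated 30 min at 37° C with poly(C).oligo(dG) (0.1 mM) and [³H]dGTP (2.95 μM) in Tris pH 7.8 with 5 mM MgCl2, 150 mM KCl, DTT, glutathione, Triton X-100; 5-fold compound dilutions. Acid-insoluble radioactivity counted after TCA/pyrophosphate precipitation.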

The subject of a further test is HIV-1(IIIB) (WT). Put plainly: microbe, parasite or virus in culture. In kind it is cell-based. The note with it: Human immunodeficiency virus 1, IIIB, CCRF-CEM. In a few lines:
as §1

The structures appear in SMILES notation. pIC50: −log10 of the molar value. Converted amounts (≈) assume the structure as drawn. Like-named read-outs stand apart in the source and are kept apart here.

On to `Cc1cn([C@@H]2O[C@H](CO[Si](C)(C)C(C)(C)C)[C@@]3(OS(=O)(=O)C=C3N)[C@H]2O[Si](C)(C)C(C)(C)C)c(=O)n(C)c1=O` [TSAO-m^3 T], for which the “50% Effective Concentration” value in [1] was 0.15 µg/mL; in the test with HIV-1/Nev (106-Ala), above 50 µg/mL; with HIV-1/Pyr (181-Cys), 3.0 µg/mL; in [3] it was above 50 µg/mL; in test [4] it was 0.05 µg/mL. Besides, the EC50 in the test on HIV-1/II(0.1) 100-Ile was 0.37 µg/mL (≈ 0.613 µM); with HIV-1/I(0.1) 103-Asn it was 0.22 µg/mL (≈ 0.364 µM); in [2], 0.06 µg/mL (≈ 0.0994 µM); in the test on HIV-1/V(0.5) 103-Asn (Table 5) it was 0.30 µg/mL (≈ 0.497 µM); in the test on HIV-1/III(0.1) 103-Asn, 0.20 µg/mL (≈ 0.331 µM); in the test on HIV-1/IV(0.1) 103-Thr, 0.30 µg/mL (≈ 0.497 µM). In addition, the EC50 in the test with HIV-1(IIIB) (WT) (CEM cells, Table 1, read-out: 50% Effective Concentration) was determined as 0.03 µg/mL (≈ 0.0497 µM); with HIV-1(IIIB) (WT) (HIV-1 (III8), Table 5, read-out: EC50), 0.03 µg/mL (≈ 0.0497 µM). Further, in the test with HIV-1/V(0.5) 103-Asn (both RT/103-Asn mutants), the “fold more inhibitory to HIV-1/III(0.1) than to HIV-1/V(0.5)” value is given as “equally inhibitory to both virus mutants”. For the same compound, the pIC50 (as a rule, the IC50 on a negative log10 scale, so that one unit is a factor of ten) on HIV-1 RT (WT) was 5.34.
